Patent US10766873B2, “Zuclopenthixol hydrochloride derivatives and Ebselen derivatives as ErbB2 inhibitors” (Centre National de la Recherche Scientifique (CNRS), priority 2016, dated 2020)
pEC50, pIC50: −log10 of the molar value. Like-named read-outs stand apart in the source and are kept apart here.

What was measured:
[1] = target: ErbB2 (Homo sapiens, UniProt P04626); assay: ErbB2 phosphorylation in SKBR3 cells, dot blot (4G10); format: cell-based; parameters: endogenous in cells; host or cells: SKBR3; settings: for Emax: SK-BR-3, read-out: ErbB2 activation 24 h Max inhibition, %; for effect on ErbB2 phosphorylation/activation (in words): SKBR3
Procedure: The ability of ZU and EB1 and their derivatives to inhibit ErbB2 activity in cellulo on a commonly used ErbB2-overexpressing breast cancer cell line SKBR3 was analyzed. SKBR3 were treated 24 h with increasing concentrations of the compounds (0.625-80 μM) and ErbB2 phosphorylation was addressed by dot blot analysis using an anti-phosphotyrosine antibody (clone 4G10). Quantifications show the result of two independent experiments.

[2] = target: T1, FERM/ErbB2 interaction (Ezrin FERM domain / juxtamembrane ErbB2 peptide) (Homo sapiens, UniProt P04626); assay: AlphaScreen competition assay, FERM/ErbB2 interaction; format: binding; settings: for Competition assay FERM-ErbB2 interaction Max inhibition, %: 20 h
T1 construct: made in house
Excerpt: To validate that the Zuclopenthixol hydrochloride (ZU) and its derivatives interact with the juxtamembrane domain of ErbB2, we first analyzed in AlphaScreen® their efficiency to inhibit FERM/ErbB2 interaction in a dose-dependent manner and determined IC50 value. Furthermore, to test the selectivity of those compounds, we tested their ability to disrupt the interaction between the FERM domain and the known ERM binding motif contained in the juxtamembrane region of CD44 as a control.
AlphaScreen® technology was used to assess the interaction between the Ezrin binding motif (EBM) contained in the juxtamembrane portions of ErbB2 or CD44 with the Ezrin FERM domain. For this purpose the Ezrin FERM domain in fusion with Glutathione-S-Transferase (GST) has been coupled to GSH-coated acceptor beads. […] The AlphaScreen® reagents (Glutathione-coated Acceptor beads and streptavidin-coated Donor beads) were obtained from PerkinElmer.
The reaction was performed using white 384-well Optiplates (PerkinElmer, Whalham, Mass., USA) in 20 μl (total reaction volume) in a reaction buffer containing PBS, pH 7.4, 5 mM MgCl2 and 0.02% CHAPS. […] 10 μl of a mix solution containing 20 μg/ml Glutathione-coated Acceptor beads and 20 μg/ml streptavidin-coated Donor beads was then added to the wells and incubation was further proceeded for 40 min or overnight in the dark and at room temperature. Light signal was detected with the EnVision® multilabel plate reader (PerkinElmer). All experiments involving AlphaScreen® beads were performed under subdued lighting.

[3] = tested on: EGFR/ErBB2 or ErbB3/ErbB2 heterodimers-dependent signalling pathways; assay: Ligand-dependent ErbB2 activation (EGF or HRG) in HBMECs, western blot; format: cell-based; settings: pre-treatment 1 h or 24 h
Procedure: In physiological conditions, ErbB2 activation occurs in heterodimer with the other ErbB family members, such as the EGFR in response to EGF stimulation or ErbB3 in response to heregulin (HRG) stimulation. We therefore addressed whether ZU, EB1 and their derivatives also affected the ligand-dependent physiological ErbB2 activation.
16 h-starved HBMECs cells were pre-treated or not for 1 h or 24 h with ZU, […] and their derivatives or AG1478 before EGF (50 ng/mL) or HRG1β (100 ng/mL) stimulation for 5 minutes. The activation of EGFR/ErBB2 or ErbB3/ErbB2 heterodimers-dependent signalling pathways was then analysed by western blot experiments using pAkt, Akt, pERK, ERK or 4G10 antibodies.

[4] = tested on: HBMEC; assay: MTT cell proliferation, HBMEC control cells; format: cell-based, human; settings: for pEC50: read-out: Cell proliferation at d 3 HBMEC EC50; for EC50: read-out: Cell proliferation at d 3 HBMEC EC50, μM
Procedure: (§1) We then analyzed the ability of ZU and EB1 and their derivatives to decrease the ErbB2-dependent cell proliferation.
(§2) SKBR3, BT474, MCF-7, MDA-MB-231 and HBMEC cells were treated with the compounds as indicated, and cell proliferation was determined each day during 3 days using an MTT assay. Non treated cells were included as a negative control.
The WT, V777L or V842I ErbB2-transfected cells were treated with 5 or 10 μM of ZU and cell proliferation was determined each day during 3 days using an MTT assay. Non transfected cells were included as a negative control.
The WT, V777L or V842I ErbB2-transfected cells were treated with 5 or 10 μM of EB1 and cell proliferation was determined each day during 3 days using an MTT assay. Non transfected cells were included as a negative control.

[5] = tested on: SKBR3; assay: MTT cell proliferation, SKBR3; format: cell-based, human; settings: for pEC50: read-out: Cell proliferation at d 3 SKBR3 EC50
Procedure: as §1, §2
(§3) A solution of ZU in cis conformation was mixed to a solution of ZU in trans conformation (1:1) to obtain ZU in a 50/50 cis/trans conformation and their respective effects on ErbB2 activation and ErbB2-dependent cell proliferation were analyzed as previously by dot blot analysis using an anti-phosphotyrosine antibody (clone 4G10) and by MTT assays in the ErbB2-overexpressing breast cancer cell line SKBR3, BT474, or HBMEC as a control.

[6] = tested on: BT474; assay: MTT cell proliferation, BT474; format: cell-based, human; settings: for pEC50: read-out: Cell proliferation at d 3 BT474 EC50
Procedure: as §1, §2, §3

[7] = SKBR3, 24 h, read-out: ErbB2 activation 24 h EC50
[8] = Homo sapiens, SK-BR-3, 72 h, day 3
[9] = SKBR3, 24 h, read-out: IC50 ErbB2 phosphorylation
[10] = Homo sapiens, BT-474, 72 h, day 3

| Compound | Emax ([1]; SKBR3, 24 h, 0.625-80 μM) | Competition assay FERM-ErbB2 interaction Max inhibition, % [2] | pEC50 [1, 7] | Cell proliferation at d 3 HBMEC Max inhibition, % ([4]; day 3) | pEC50 [5, 8] | Cell proliferation at d 3 SKBR3 Max inhibition, % ([5]; day 3) | pEC50 [6, 10] | Cell proliferation at d 3 BT474 Max inhibition, % ([6]; day 3) | inhibition of FERM/ErbB2 interaction (in words) [2] | other results |
| --- | --- | --- | --- | --- | --- | --- | --- | --- | --- | --- |
| O=C(O)C1CCN(CCC=C2c3ccccc3Sc3ccccc32)CC1 [ZUf, 1-(3-(9H-thioxanthen-9-ylidene)propyl)piperidine-4-carboxylic acid] | 0% | 11% | – | – | – | – | – | – | – | effect on ErbB2 phosphorylation/activation (in words) [1]: no effect |
| CCOC(=O)C1CCN(CCC=C2c3ccccc3Oc3ccccc32)CC1 [ZU6, ethyl 1-(3-(9H-xanthen-9-ylidene)propyl)piperidine-4-carboxylate] | 36.2% | – | 4.45 | – | – | – | – | – | – | effect on ErbB2 phosphorylation/activation (in words) [1]: lower decrease |
| COc1cc2ncnc(Nc3cccc(Cl)c3)c2cc1OC [AG1478] | – | – | – | – | – | – | – | – | – | ligand-dependent ErbB2 activation induced by EGF or HRG stimulation (in words) [3]: strongly blocked |
| Cc1ccc(-n2sc3ccccc3c2=O)cc1 [EB2] | 43.8% | – | 4.74 | 29.5% | 5.03 | 34.1% | 4.93 | 20% | – | effect on HBMEC proliferation (in words) ([4]; 5 μM): without any effect; pEC50 ([4]; Homo sapiens, 72 h, day 3): 4.94; effect on SKBR3 proliferation (in words) ([5]; 5 μM): did not significantly decreased; pIC50 [1, 9]: 4.70 to 4.74 |
| CCOC(=O)C1CCN(CCC=C2c3ccccc3Sc3ccccc32)CC1 [ZU4, 9-(3-(4-(ethylacetate)piperidine)propylidene)-thioxanthene] | 27.5% | 36% | 4.32 | – | – | – | – | – | inhibited FERM/ErbB2 interaction in a specific and dose-dependent manner | effect on ErbB2 phosphorylation/activation (in words) [1]: lower decrease |
| 9-(3-(4-(2-hydroxyethyl)piperazinyl)propylidene)-thioxanthene [ZU3] | – | 28% | 4.49 | 0% | – | 32.6% | – | 31.5% | inhibited FERM/ErbB2 interaction in a specific and dose-dependent manner | effect on HBMEC proliferation (in words) ([4]; 20 μM): without any effect; reduction of SKBR3 proliferation ([5]; 20 μM): 30%; pEC50 ([5]; day 3): 4.81; ErbB2 activation 24 h Max inhibition, % ([1]; SKBR3, 24 h, 0.625-80 μM): 75.12%; reduction of BT474 proliferation ([6]; 20 μM): 30%; pEC50 ([6]; day 3): 5.38 |
| O=c1c2ccccc2[se]n1-c1ccccc1 [EBa, reference compound] | 15.6% | – | 4.39 | – | – | – | – | – | – | ligand-dependent ErbB2 activation induced by EGF or HRG stimulation (in words) [3]: did not block; reduction of ErbB2 phosphorylation ([1]; SKBR3, concentration of 10 μM): 15% |
| O=C(O)C1CCN(CCC=C2c3ccccc3Oc3ccccc32)CC1 [ZUe, 1-(3-(9H-xanthen-9-ylidene)propyl)piperidine-4-carboxylic acid] | 0% | – | – | – | – | – | – | – | – | effect on ErbB2 phosphorylation/activation (in words) [1]: no effect |
| CN1CCN(CC/C=C2/c3ccccc3Sc3ccc(S(=O)(=O)N(C)C)cc32)CC1 [ZU2] | 74.2% | 16% | 4.50 | – | – | – | – | – | inhibited FERM/ErbB2 interaction in a specific and dose-dependent manner | pIC50 [1, 9]: 4.46 to 5.30 |
| O=c1c2ccccc2sn1-c1ccc(Cl)cc1 [EB3] | 66.4% | – | 4.71 | 75.1% | 5.05 | 63.5% | 5.16 | 82.7% | – | effect on HBMEC proliferation (in words) ([4]; 7 μM): without any effect; pEC50 ([4]; Homo sapiens, 72 h, day 3): 2.56; effect on SKBR3 proliferation (in words) ([5]; 7 μM): did not significantly decreased; pIC50 [1, 9]: 4.70 to 4.74; reduction of BT474 proliferation ([6]; 7 μM, day 2): 30% |
| NCCN1CCN(CC/C=C2/c3ccccc3Sc3ccc(C(F)(F)F)cc32)CC1 [ZUc, (Z)-2-(4-(3-(2-(trifluoromethyl)-9H-thioxanthen-9-ylidene)propyl)piperazin-1-yl) Ethanamine] | 90.8% | 45% | – | 68.8% | 6.47 | 78.9% | 6.64 | 94.9% | – | toxicity on control cells (in words) [4]: non-specific toxic effects; EC50 ([4]; Homo sapiens, 72 h): 0.14 µM; pEC50 [1]: 5.29; pIC50 [1]: 4.46 to 5.30 |
| CS(=O)(=O)CCNCc1ccc(-c2ccc3ncnc(Nc4ccc(OCc5cccc(F)c5)c(Cl)c4)c3c2)o1 [lapatinib, reference compound] | – | – | – | – | – | – | – | – | did not inhibit | – |
| FCCN1CCN(CC/C=C2/c3ccccc3Sc3ccc(C(F)(F)F)cc32)CC1 [ZUd, (Z)-1-(2-fluoroethyl)-4-(3-(2-(trifluoromethyl)-9H-thioxanthen-9-ylidene)propyl) Piperazine] | 51.4% | 54% | – | – | 5.17 | 86.4% | 4.78 | 86% | – | toxicity on control cells (in words) [4]: non-specific toxic effects; EC50 ([4]; Homo sapiens, 72 h): 16.3 µM; inhibition at 20 µM ([4]; Homo sapiens, 72 h, 20 μM, day 3): 90%; reduction of SKBR3 proliferation ([5]; 20 μM, day 3): 86%; pEC50 [1]: 4.69; pIC50 [1]: 4.46 to 5.30; reduction of BT474 proliferation ([6]; 20 μM, day 3): 86% |
| OCCN1CCN(CC/C=C2\c3ccccc3Sc3ccc(Cl)cc32)CC1 (single isomer, unassigned) [trans isomer] | – | – | – | – | – | – | – | – | – | effect on SKBR3 proliferation (in words) ([5]; 10 μM): no significant inhibitory effect; effect on BT474 proliferation (in words) ([6]; 10 μM): no significant inhibitory effect |
| CC(=O)OCCN1CCN(CC/C=C2/c3ccccc3Sc3ccc(Cl)cc32)CC1 [ZU5, (Z)-2-(4-(3-(2-chloro-9H-thioxanthen-9-ylidene)propyl)piperazin-1-yl)ethylacetate] | 97.5% | 41% | 4.36 | 24.5% | 5.46 | 28.2% | 4.75 | 30.8% | inhibited FERM/ErbB2 interaction in a specific and dose-dependent manner | effect on HBMEC proliferation (in words) ([4]; 1 and 5 μM): without any effect; EC50 ([4]; Homo sapiens, 72 h): 21.9 µM; reduction of SKBR3 proliferation ([5]; 1 and 5 μM, day 3): 60%; pIC50 [1, 9]: 4.46 to 5.30; reduction of BT474 proliferation ([6]; 1 and 5 μM, day 3): 33% |
